Results as given in patent US9180115B2, “Cyclohexylamines” (Asana Biosciences, LLC, priority 2011, dated 2015).
Where two headings read alike, the source gives them in different places.

How the values were obtained:
[1] = molecular target: T1, human Nav1.5 sodium channel (Homo sapiens, UniProt Q14524); assay: FLIPR membrane potential assay in hNav1.5-HEK293 cells; type: cell-based
T1 construct: host or cells: HEK-293
Description: C. Method for Assessing the Extent of Inhibition of Sodium Channel Response with Compounds in hNav1.5-HEK293 Cells.
The following assay was used to assess the tendency of the test compounds to block the dominant cardiac sodium channel isoform. Nav1.5 sodium channels are known to be permeable to quaternary sodium channel blockers such as QX-314 and, thus, the assay was performed in the absence of a chemical TRPV1 agonist.
The hNav1.5-HEK-293 cells (CreaCell, France, a human embryonic kidney cell line expressing the human Nav1.5 sodium channel) were cultured in Growth medium (containing 1×DMEM (Gibco)+10% FBS (PAA Gold)+2% glutamine 100 mM (Gibco)+1% penicillin 10,000 U/mL streptomycin 10,000 μg/mL (Invitrogen)+1.2 mg/mL Geneticin® G418 (Invitrogen)) in 75 mL cell bind flasks (Corning). The following steps were followed exactly as mentioned. The spent medium was discarded and the cells rinsed once with PBS-1×. Accutase® (1-2 mL; PAA) solution was added. The plate was placed on a 37° C. warming incubator 3-5 minutes. As soon as cells are detached, 37° C. complete medium (9 mL) was added. The cell suspension is drawn into a sterile pipette and cells homogenized gently to dissociate cell aggregates. The cells were counted using a hemocytometer with Blue Trypan and then centrifuged 5 minutes at 400 g. The cells can be amplified or maintained by seeding […] in a T75 flask (final volume: 15 mL). 8000 cells in 50 μL Growth medium was added to each well of 384-well, clear bottomed, sterile poly-D-lysine coated plates with lid (Greiner-bio one) inside the laminar air-flow. The plates were incubated at 37° C. and 5% CO2 in a CO2 incubator (Thermo) for 48 hours.
On the day of the assay, cells were washed with Assay buffer, which was prepared using the components and amounts in the following Table 5. pH was adjusted to 7.4 with NaOH, volume made up to 500 mL with Milli-Q® water.
Assay Buffer was added to the cells and incubated at rt (25° C.) for 10 minutes. The compounds were diluted in assay buffer. The compounds were added and incubated at rt (25° C.) for 10 minutes. Red FMP Dye (MDC) was added to the cells and the plate was incubated at rt (25° C.) for 30 minutes. Veratridine stock (20 mM; Sigma) was prepared in DMSO; veratridine (final concentration of 30 μM) in assay buffer was added to each well of the cell seeded plates in the FLIPR and read taken for 10 minutes. The following table provides data illustrating the sodium channel activity of the test compounds in response to the presence or absence of heat stimulation in cells expressing hTRPV1. The compounds were tested for differential activity at 25° C. and 47° C. and at two test concentrations.

[2] = system: sodium channel response in hTRPV1-N1E115 cells; assay: FLIPR membrane potential assay of sodium channel response in hTRPV1-N1E115 cells with or without heat (47° C.) activation; type: cell-based; conditions: for hTRPV1-N1E Nav 0.1 mM (% inhibition) 25° C. / hTRPV1-N1E Nav 1 mM (% inhibition) 25° C.: 25° C. (no heat activation); for hTRPV1-N1E Nav 0.1 mM (% inhibition) 47° C. / hTRPV1-N1E Nav 1 mM (% inhibition) 47° C.: 47° C. (heat activated); for IC50: 47° C., read-out: hTRPV1-N1E IC50 (μM) 47° C.
From the text: In one embodiment, a modified FLIPR® (Fluorometric Imaging Plate Reader) based assay system was developed which is capable of discriminating between non-specific versus hTRPV1-mediated entry of test compounds. Advantageously, the assay system utilizes heat activated opening of hTRPV1 channels followed by an assessment of internal sodium channel block. The assay allows a permanently charged compound to selectively enter through opened hTRPV1 channels and that compound's potency in inhibiting sodium channels from the cytoplasm side of the same cell can be assessed and quantified.
The test compounds are diluted in the Assay Buffer and added to each well of a specific 384-well ‘compound plate’, which serves as a source plate for compound addition using the FLIPR® platform. The concentration of compounds in the compound-plate was adjusted to achieve the desired final concentration when added to the cells in the ‘cell-plate’. After completion of the dye incubation period, the dye loaded cell-plates and the compound source plates are inserted into the FLIPR® Tetra device with a 384 FLIPR® tip box (Molecular Devices, Inc.) according to manufacturer's instructions. The compounds are robotically added to the dye loaded cell-plates using software integral to the FLIPR® Tetra instrument.
Immediately following compound addition, hTRPV1 is activated, in one of the duplicate cell plates, by heating. Specifically, entire multi-well plate containing the compound-cells mixture is incubated at 47° C. for 10 minutes, after which they are returned to room temperature (about 25° C.) for a further 30 minutes. Heat activation of hTRPV1 was omitted from the replicate cell plate which was simply maintained at room temperature for the entire 40 minutes.
A membrane potential response is elicited in the dye- and compound-loaded cells by the addition of veratridine which is a known sodium channel ‘agonist’. As illustrated in an example herein, an agonist plate containing veratridine (Sigma) is prepared in advance and is inserted into suitable devices such as, e.g., the FLIPR® TETRA device for a “2nd addition” as instructed by the manufacturer. The concentration of veratridine in the ‘agonist plate’ was adjusted to achieve a final concentration of 100 μM when added to the cells in the cell-plate. Final concentrations of veratridine greater or lesser than 100 μM may also be used but the signal measured by the FLIPR® TETRA device or another suitable device may vary accordingly.
The exposure of the cells in the cell-plate to veratridine induces sodium channels in the cells to open and the resulting ion flux produces a membrane potential depolarization that is detected as a fluorescence signal by the FLIPR® Tetra Device. The activity of test compounds is determined by their ability to attenuate the veratridine-induced fluorescence signal, the most promising compounds are those that show an enhanced activity in the heat-activated cell plate over the non-heat-activated cell plate. This differential activity reflects enhanced compound uptake via the heat activated and open hTRPV1 channels and rests on the fact that sodium channel block requires test compounds to act from the cytoplasmic side of the cell membrane.
In vitro assays were developed for assessing the inhibition of sodium channel response with compounds following stimulation by heat (47° C.) in cells expressing hTRPV1.
(v) Membrane potential Assay to Assess Sodium Channel Function in hTRPV1-Expressing Cells • Cells were plated at 5000 per 50 μL [DMEM+10% FBS+300 μg/mL H\hygromycin] per well, in a 384 clear bottom poly-D-lysine coated plate and incubated at 37° C. and 5% CO2 for 48 hours. On the day of the assay, media were discarded gently and 30 μL of the dye [FMP blue dye was prepared in assay buffer] per well was added and dye-loading was allowed to proceed for 20 min at room temperature. […]

[3] = system: Male Sprague Dawley (SD) rats; assay: In vivo assay of mechanical nociception (rat pinch model, perisciatic injection); conditions: for Average Time of Analgesia: lidocaine 2%
[4] = read-out: HEK Nav 1.5 IC50 (μM) (AVG)
[5] = test compound 0.5%, injection 200 μL

T1 sequence (Q14524 whole entry): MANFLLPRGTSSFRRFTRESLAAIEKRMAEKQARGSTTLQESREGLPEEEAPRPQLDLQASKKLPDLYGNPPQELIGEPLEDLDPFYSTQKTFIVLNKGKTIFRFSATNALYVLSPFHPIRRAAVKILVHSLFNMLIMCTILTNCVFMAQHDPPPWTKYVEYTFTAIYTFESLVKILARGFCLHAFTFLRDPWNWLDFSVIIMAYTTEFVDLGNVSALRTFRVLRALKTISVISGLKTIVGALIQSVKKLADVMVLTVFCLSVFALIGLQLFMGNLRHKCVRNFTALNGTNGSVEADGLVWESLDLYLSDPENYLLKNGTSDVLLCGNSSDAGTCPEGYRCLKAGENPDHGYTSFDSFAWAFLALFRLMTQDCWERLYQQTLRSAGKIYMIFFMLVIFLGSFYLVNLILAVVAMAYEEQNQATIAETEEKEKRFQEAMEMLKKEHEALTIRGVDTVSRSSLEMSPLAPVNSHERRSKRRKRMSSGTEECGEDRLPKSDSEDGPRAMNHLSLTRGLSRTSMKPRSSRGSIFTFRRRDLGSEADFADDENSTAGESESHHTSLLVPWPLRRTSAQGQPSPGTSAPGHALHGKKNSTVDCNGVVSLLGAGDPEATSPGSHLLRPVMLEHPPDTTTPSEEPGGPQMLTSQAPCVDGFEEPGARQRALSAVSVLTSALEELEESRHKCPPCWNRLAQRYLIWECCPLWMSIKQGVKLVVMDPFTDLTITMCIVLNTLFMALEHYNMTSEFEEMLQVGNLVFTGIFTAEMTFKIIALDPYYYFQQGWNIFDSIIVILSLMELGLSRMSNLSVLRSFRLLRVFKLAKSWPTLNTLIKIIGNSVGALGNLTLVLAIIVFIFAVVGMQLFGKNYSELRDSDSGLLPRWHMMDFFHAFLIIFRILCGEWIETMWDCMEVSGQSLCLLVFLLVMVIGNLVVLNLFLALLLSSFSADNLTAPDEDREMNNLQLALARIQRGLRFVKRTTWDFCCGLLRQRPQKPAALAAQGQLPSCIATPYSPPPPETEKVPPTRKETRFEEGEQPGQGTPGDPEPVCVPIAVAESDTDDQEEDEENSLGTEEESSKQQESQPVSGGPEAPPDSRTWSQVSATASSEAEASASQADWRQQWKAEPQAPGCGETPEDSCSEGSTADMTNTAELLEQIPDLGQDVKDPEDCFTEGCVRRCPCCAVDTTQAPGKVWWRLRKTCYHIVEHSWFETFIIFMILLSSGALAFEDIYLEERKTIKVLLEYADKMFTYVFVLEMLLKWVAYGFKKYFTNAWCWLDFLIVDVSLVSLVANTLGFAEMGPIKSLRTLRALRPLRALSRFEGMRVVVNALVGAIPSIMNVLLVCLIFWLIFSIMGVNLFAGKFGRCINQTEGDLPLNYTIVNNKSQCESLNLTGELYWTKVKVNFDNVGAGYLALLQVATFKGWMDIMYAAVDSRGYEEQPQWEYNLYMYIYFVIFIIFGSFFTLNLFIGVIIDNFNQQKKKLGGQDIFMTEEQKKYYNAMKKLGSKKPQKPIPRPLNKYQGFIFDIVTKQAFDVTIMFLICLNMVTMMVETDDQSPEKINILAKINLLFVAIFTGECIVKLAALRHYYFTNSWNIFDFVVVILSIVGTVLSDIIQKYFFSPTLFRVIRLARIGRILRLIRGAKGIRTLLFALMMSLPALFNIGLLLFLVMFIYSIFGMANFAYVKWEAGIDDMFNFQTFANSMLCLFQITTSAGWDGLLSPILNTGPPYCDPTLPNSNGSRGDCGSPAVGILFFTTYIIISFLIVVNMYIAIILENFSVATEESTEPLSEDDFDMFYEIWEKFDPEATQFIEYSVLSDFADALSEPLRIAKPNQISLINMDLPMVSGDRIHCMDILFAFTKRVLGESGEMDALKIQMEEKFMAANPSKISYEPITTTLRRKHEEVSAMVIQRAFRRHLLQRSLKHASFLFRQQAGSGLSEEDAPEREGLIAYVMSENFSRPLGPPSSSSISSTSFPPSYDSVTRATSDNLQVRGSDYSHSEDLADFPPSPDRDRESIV

| SMILES | IC50 [1, 4] | hTRPV1-N1E Nav 0.1 mM (% inhibition) 25° C. [2] | hTRPV1-N1E Nav 0.1 mM (% inhibition) 47° C. [2] | IC50 [2] | Average Time of Analgesia ([3]; test compound 0.5%, injection 100 μL) | hTRPV1-N1E Nav 1 mM (% inhibition) 25° C. [2] | hTRPV1-N1E Nav 1 mM (% inhibition) 47° C. [2] | paw withdrawal vocalization force ([3]; 0.45% solution with 2% lidocaine, FIG. 1) | Average Time of Analgesia ([3]; test compound 0.2%, injection 200 μL) | Average Time of Analgesia ([3]; test compound 0.3%, injection 200 μL) | Average Time of Analgesia ([3]; test compound 0.4%, injection 200 μL) | Average Time of Analgesia ([3]; test compound 0.45%, injection 200 μL) | IC50 ([1]; HEK Nav 1.5 IC50 (μM) (AVG)) | Average Time of Analgesia [3, 5] |
| --- | --- | --- | --- | --- | --- | --- | --- | --- | --- | --- | --- | --- | --- | --- |
| CC1CCC([N+](C)(C)CC(C)OC(=O)c2ccc(C(C)(C)C)cc2)CC1.[I-] (stereo not drawn) [Example 38, N-[2-((4-(tert-butyl)benzoyl)oxy)propyl]-N,N,4-trimethylcyclo-hexanaminium iodide] | 54 µM | 75 (N = 4) % | 95 (N = 4) % | 10 to 100 µM |  |  |  |  |  |  |  |  |  |  |
| Cc1cc(C)c(C(=O)OC(C)C[N+](C)(C)C2CCCCC2)c(C)c1.[I-] (stereo not drawn) [Example 1, N,N-dimethyl-N-[2-((2,4,6-trimethylbenzoyl)oxy)propyl]cyclohexanaminium iodide] | 240 µM | 13 (N = 4) % | 73 (N = 4) % | 10 to 100 µM | 7 h | 53 (N = 4) % | 92 (N = 4) % |  |  |  |  |  |  |  |
| C[C@@H](C[N+](C)(C)C1CCCCC1)OC(=O)c1ccc(C(C)(C)C)cc1.[Br-] [Example 5, (S)—N-[2-((4-(tert-butyl)benzoyl)oxy)propyl]-N,N-dimethylcyclohexanaminium bromide] |  | 45 (N = 4) % |  | 10 to 100 µM |  |  |  | remained at cut-off for the duration of the experiment | 2 h | 24 h | 44 h | >64 h | 305 µM |  |
| CC(C[N+](C)(C)C1CCCCC1)OC(=O)c1ccc(C(C)(C)C)cc1.[I-] (stereo not drawn) [Example 12, N-[2-((4-(tert-Butyl)benzoyl)oxy)propyl]-N,N-dimethyl-cyclohexanaminium iodide] |  | 25 (N = 4) % | 84 (N = 4) % | 10 to 100 µM |  | 17 (N = 4) % | 88 (N = 4) % |  |  |  |  |  | 134 µM | 0.5 h |
| CC(C[N+](C)(C)C1CCCCC1)OC(=O)c1sc2ccccc2c1Cl.[I-] (stereo not drawn) [Example 31, N-[2-((3-Chloro-benzo[b]thiophene-2-carbonyl)oxy)propyl]-N,N-dimethyl-cyclohexanaminium iodide] | 160 µM | 27 (N = 4) % | 94 (N = 4) % | 10 to 100 µM |  |  |  |  |  |  |  |  |  |  |
| CC(C[N+](C)(C)C1CCCCC1)OC(=O)c1ccccc1C(C)C.[I-] (stereo not drawn) [Example 2, N-[2-((2-isopropylbenzoyl)oxy)propyl]-N,N-dimethylcyclohexanaminium iodide] | 188 µM | 23 (N = 4) % | 77 (N = 4) % | 10 to 100 µM |  | 78 (N = 4) % | 89 (N = 4) % |  |  |  |  |  |  | 12 h |
| Cc1cc(C)c(C(=O)OC(C)C[N+](C)(C)C2CCC(C)CC2)c(C)c1.[I-] (stereo not drawn) [Example 39, N,N,4-Trimethyl-N-[2-((2,4,6-trimethyl-benzoyl)oxy)propyl] cyclohexanaminium iodide] | 89 µM | 41 (N = 4) % | 7 (N = 4) % | 10 to 100 µM |  |  |  |  |  |  |  |  |  |  |
| C[C@H](C[N+](C)(C)C1CCCCC1)OC(=O)c1ccc(C(C)(C)C)cc1.[Br-] [Example 48, (R)-N-[2-((4-(tert-butyl)benzoyl)oxy)propyl]-N,N-dimethylcyclo-hexanaminium bromide] |  | 48 (N = 4) % |  | 10 to 100 µM |  |  |  |  |  |  |  |  | 252 µM |  |
| CC(C[N+](C)(C)C1CCCCC1)OC(=O)c1ccc(Cl)cc1Cl.[I-] (stereo not drawn) [Example 10, N-[2-((2,4-Dichlorobenzoyl)oxy)propyl]-N,N-dimethyl-cyclohexanaminium iodide] |  | 10 (N = 4) % | 59 (N = 4) % | 100 to 1000 µM |  | 61 (N = 4) % | 95 (N = 4) % |  |  |  |  |  |  |  |
| CC(C[N+](C)(C)C1CCCCC1)OC(=O)c1ccccc1C(F)(F)F.[I-] (stereo not drawn) [Example 17, N-[2-((2-(Trifluoromethyl)benzoyl)oxy)propyl]-N,N-dimethylcyclo-hexanaminium iodide] |  | 4 (N = 4) % | 54 (N = 4) % | 100 to 1000 µM |  | 72 (N = 4) % | 96 (N = 4) % |  |  |  |  |  |  |  |
